Our source for the IC50 and EC50 values is patent publication US12459922B2 (Gilead Sciences, Inc., priority 2022, dated 2025).

The target of one assay is T1, PARP7 (Homo sapiens, UniProt Q7Z3E1).
T1 sequence (Q7Z3E1 1-657): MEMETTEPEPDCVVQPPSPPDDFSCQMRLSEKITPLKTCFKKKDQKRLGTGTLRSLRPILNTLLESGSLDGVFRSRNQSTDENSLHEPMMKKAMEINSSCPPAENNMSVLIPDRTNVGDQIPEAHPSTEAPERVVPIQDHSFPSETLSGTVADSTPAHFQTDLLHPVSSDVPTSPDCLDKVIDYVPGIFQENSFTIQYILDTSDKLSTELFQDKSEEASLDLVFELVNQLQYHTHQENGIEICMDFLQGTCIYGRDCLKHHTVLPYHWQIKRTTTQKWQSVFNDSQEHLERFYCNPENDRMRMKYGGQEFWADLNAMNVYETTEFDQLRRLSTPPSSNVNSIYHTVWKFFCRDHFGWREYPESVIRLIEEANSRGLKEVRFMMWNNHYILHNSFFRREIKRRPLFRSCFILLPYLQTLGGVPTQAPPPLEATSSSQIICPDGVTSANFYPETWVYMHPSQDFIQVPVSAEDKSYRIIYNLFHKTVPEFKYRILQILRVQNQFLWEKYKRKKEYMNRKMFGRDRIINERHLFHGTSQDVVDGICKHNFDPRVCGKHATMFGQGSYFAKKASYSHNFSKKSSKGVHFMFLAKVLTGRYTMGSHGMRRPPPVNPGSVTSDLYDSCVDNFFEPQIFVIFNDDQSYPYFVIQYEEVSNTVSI
Nature of the assay: Probe Displacement Assay for PARP7 (MSD electrochemiluminescent, biotinylated probe RBNO11147). Conditions: displacement of biotinylated probe RBNO11147 from PARP7 NAD+-binding site; read-out: MSD ProbeDisp PARP7 IC50.

The subject of assay [1] is endogenous cellular STAT1 (phosphorylated at Tyr701) in NCI-H1373 cells. The assay is described as follows: Phospho-STAT1 (Tyr701) LANCE Ultra TR-FRET Detection Assay. The assay is classed as cell-based. Conditions: Homo sapiens, NCI-H1373, 48 h, phospho-STAT1 (Tyr701) induction, read-out: NH1373 pSTAT1 EC50. A general note: Time-resolved FRET reads energy transfer from a long-lived donor to a nearby acceptor.

One may read the IC50 as the concentration that inhibits the measured activity by half. As usually defined, the EC50 is the concentration needed to bring the measured effect to its halfway point.

`C[C@@H](CCCn1ccc2cc(-c3nc(C(F)(F)F)n(C)n3)c(F)cc2c1=O)Nc1cn[nH]c(=O)c1C(F)(F)F` [Example 300, (S)-7-fluoro-6-(1-methyl-5-(trifluoromethyl)-1H-1,2,4-triazol-3-yl)-2-(4-((6-oxo-5-(trifluoromethyl)-1,6-dihydropyridazin-4-yl)amino)pentyl)isoquinolin-1(2H)-one]: the IC50 on PARP7 stood at 0.413 nM. In assay [1], the concentration giving a half-maximal response (EC50) stood at 56.1 nM.

For the compound `COc1cnc(-c2cc3ccn(CCC[C@H](C)Nc4cn[nH]c(=O)c4C(F)(F)F)c(=O)c3cc2F)nc1` [Example 22, (S)-7-fluoro-6-(5-methoxypyrimidin-2-yl)-2-(4-((6-oxo-5-(trifluoromethyl)-1,6-dihydropyridazin-4-yl)amino)pentyl)isoquinolin-1(2H)-one], the IC50 at PARP7 came to 0.4 nM. The concentration for a half-maximal effect (EC50) in assay [1] amounted to 71.3 nM.

For the compound `C[C@@H](CCCn1ccc2cc(-c3ccc4c(c3)OCCO4)c(F)cc2c1=O)Nc1cn[nH]c(=O)c1C(F)(F)F` [Example 28, (S)-6-(2,3-dihydrobenzo[b][1,4]dioxin-6-yl)-7-fluoro-2-(4-((6-oxo-5-(trifluoromethyl)-1,6-dihydropyridazin-4-yl)amino)pentyl)isoquinolin-1(2H)-one], at PARP7, the concentration for half-maximal inhibition (IC50) is > 33 nM. Also, the EC50 in assay [1] came out at 2180 nM.

On to `Cc1cc2cc(-c3ncc(C(F)(F)F)cn3)ccc2c(=O)n1CCC[C@H](C)Nc1cn[nH]c(=O)c1C(F)(F)F` [Example 45, 3-methyl-2-[(4S)-4-[[6-oxo-5-(trifluoromethyl)-1H-pyridazin-4-yl]amino]pentyl]-6-[5-(trifluoromethyl)pyrimidin-2-yl]isoquinolin-1-one], for which the concentration for half-maximal inhibition (IC50) on PARP7 amounted to 1.19 nM. Also, in assay [1], the 50% effective concentration (EC50) was 617 nM.

On to `C[C@@H](CCCn1ccc2cc(-c3ncc(CN)cn3)c(F)cc2c1=O)Nc1cn[nH]c(=O)c1C(F)(F)F` [Example 302, (S)-6-(5-(aminomethyl)pyrimidin-2-yl)-7-fluoro-2-(4-((6-oxo-5-(trifluoromethyl)-1,6-dihydropyridazin-4-yl)amino)pentyl)isoquinolin-1(2H)-one], for which, on PARP7, the IC50 turned out to be 2.06 nM. The EC50 in assay [1] is 108 nM.

In the case of `O=c1[nH]ncc(N2C[C@H]3C[C@H]3[C@H]2CCCn2ccc3cc(-c4ccc(C(F)(F)F)cn4)cc(F)c3c2=O)c1C(F)(F)F` [Example 48, 8-fluoro-2-[3-[(1R,2R,5S)-3-[6-oxo-5-(trifluoromethyl)-1H-pyridazin-4-yl]-3-azabicyclo[3.1.0]hexan-2-yl]propyl]-6-[5-(trifluoromethyl)-2-pyridyl]isoquinolin-1-one], the 50% inhibitory concentration (IC50) on PARP7 worked out at 0.897 nM. In addition, the EC50 in assay [1] is 338 nM.

As to `Nc1nc(-c2cc3ccn(CCC[C@H](COC(F)F)Nc4cn[nH]c(=O)c4C(F)(F)F)c(=O)c3cc2F)ncc1Cl` [Example 378, (R)-6-(4-amino-5-chloropyrimidin-2-yl)-2-(5-(difluoromethoxy)-4-((6-oxo-5-(trifluoromethyl)-1,6-dihydropyridazin-4-yl)amino)pentyl)-7-fluoroisoquinolin-1(2H)-one], the IC50 at PARP7 is 0.255 nM. In assay [1], the EC50 is 2.45 nM.

For the compound `C[C@@H](CCCn1ccc2cc(-c3ncc(F)cn3)c(F)cc2c1=O)Nc1cn[nH]c(=O)c1C(F)(F)F` [Example 34, 7-fluoro-6-(5-fluoropyrimidin-2-yl)-2-[(4S)-4-[[6-oxo-5-(trifluoromethyl)-1H-pyridazin-4-yl]amino]pentyl]isoquinolin-1-one], the IC50 at PARP7 was determined as 0.6 nM. Moreover, the EC50 in assay [1] was determined as 429 nM.

`C[C@@H](CCCn1ccc2cc(-c3cccc4c3OCC4)c(F)cc2c1=O)Nc1cn[nH]c(=O)c1C(F)(F)F` [Example 26, (S)-6-(2,3-dihydrobenzofuran-7-yl)-7-fluoro-2-(4-((6-oxo-5-(trifluoromethyl)-1,6-dihydropyridazin-4-yl)amino)pentyl)isoquinolin-1(2H)-one]: on PARP7, the half-inhibitory concentration (IC50) was 0.4 nM. In addition, in assay [1], the EC50 was 10000 nM.

Consider `C[C@@H](CCCn1ccc2cc(-c3cnc(C(F)(F)F)cn3)c(F)cc2c1=O)Nc1cn[nH]c(=O)c1C(F)(F)F` [Example 21, 7-fluoro-2-[(4S)-4-[[6-oxo-5-(trifluoromethyl)-1H-pyridazin-4-yl]amino]pentyl]-6-[5-(trifluoromethyl)pyrazin-2-yl]isoquinolin-1-one], for which the IC50 at PARP7 amounted to 0.3 nM. In assay [1], the concentration for a half-maximal effect (EC50) came to 136 nM.

Regarding `Nc1nc(-c2cc3ccn(CCC[C@H](COC(F)F)Nc4cn[nH]c(=O)c4C(F)(F)F)c(=O)c3cc2F)ncc1C(F)F` [Example 376, (R)-6-(4-amino-5-(difluoromethyl)pyrimidin-2-yl)-2-(5-(difluoromethoxy)-4-((6-oxo-5-(trifluoromethyl)-1,6-dihydropyridazin-4-yl)amino)pentyl)-7-fluoroisoquinolin-1(2H)-one], the IC50 at PARP7 came to 0.339 nM. The EC50 in assay [1] turned out to be 3.03 nM.
